Measured values from patent US11192859B2, “Quinoline compounds as modulators of RAGE activity and uses thereof” (NEW YORK UNIVERSITY, priority 2016, dated 2021).

Columns and labels:
[1] = target: binding of RAGE tail (ctRAGE) to DIAPH1 (Homo sapiens (Human), UniProt Q15109); test: Primary screen (high-throughput): blocking of GFP RAGE tail binding to DIAPH1; settings: 10 μM; Table 1
Experimental: […] Compounds that reduced binding of RAGE tail (ctRAGE) by at least 50% were then selected and subjected to 4-point dose response (10 uM, 1 uM, 0.1 uM and 0.01 uM).
• Step 1. Add 50 μl anti-DIAPH1 (1:160 dilution in 0.1M NaHCO3 pH 9.6)/well. Incubate overnight at 4° C. Day 2 • Step 2. Use the plate washer to aspirate anti-DIAPH11 and wash plates 4× with PBS 100 μl per well per wash. • Step 3. Add 180 μl 3% BSA in 1×PBS. Incubate for 1.5 hrs at room temperature Step 4. Use the plate washer to aspirate the blocking solution and wash 5× with PBS 300 μl per well. • Step 5. Add 50 μl of DIAPH1 containing lysate (85 μg) and incubate at RT for 3 hours. • Step 6. Aspirate the lysate and wash the plate 5×(100 μl) on the plate washer. • Step 7. Add 25 μl PBS to the wells. • Step 8. Add 0.5 μL compound per well. • Step 9. Add 24.5 μL GFP RAGE tail (125 nM) into each well for 2 hrs at room temperature. • Step 10. Aspirate and wash 5× with PBS (100 μL) on the plate washer. • Step 11. Add 100 μl PBS in each well. • Step 12. Detection: Read on fluorescence plate reader excitation […] and 485 nm emission
Compounds that blocked the binding of RAGE tail to DIAPH1 by 50% or more were subjected to 4 point dose response: 10 μM, 1 μM, 0.1 μM and 0.01 μM.

[2] = test system: Murine vascular smooth muscle cells (SMCs); test: Smooth muscle cell migration assay (wounding assay), RAGE ligand CML-AGE; type: cell-based; design: key to SMC migration Assay, IC50 (nM): ****: No inhibition or bad fit or inhibition out of range; settings: CML-AGE 10 μg/ml, 7 h; for IC50: Mus musculus, read-out: SMC migration Assay, IC50
Experimental: FIG. 4 depicts effects of compounds on RAGE ligand-stimulated migration of murine aortic smooth muscle cells (SMCs). Migration of SMCs after incubation with the indicated RAGE inhibitor compounds or the parent molecule (“C12”) quinolone from the Chem-Bridge library was assessed. SMCs were grown to confluence and serum-starved overnight. The following morning, serum free media was removed and compounds were added (1 μM). Immediately following the addition of compounds, the monolayer was wounded using a p200 pipette tip and allowed to incubate for 1.5 h. Following this incubation, compounds were removed and fresh media containing RAGE ligand, CML-AGE (10 μg/ml), was added for 7 h. All images were measured at TO and T7 h and an area ingrowth of effective migrating cells was calculated. Each compound was tested in three independent wells and each well was photographed in 3 separate locations for a total of 9 images used in assessing area ingrowth. Error bars represent SEM. * indicates p<0.05 comparing CML-AGE vs. CML-AGE and compound treatment and # indicates p<0.001 comparing CML-AGE vs. serum free medium (SFM) vehicle. Note that SFM is the vehicle into which the RAGE ligand, CML-AGE, is added for testing the effect of RAGE ligand.
Murine vascular smooth muscle cells (SMCs) were cultured from the aortas of 10-week old male mice using a modification of the procedure of Travo and Barret^17. SMCs were cultured following an explant protocol in accordance with institutional guidelines. Wild-type murine aortic vascular SMCs were isolated and used between passages 8 to 12. Migration in response to the RAGE ligand CML-AGE (CML, 10 μg/ml) or a general effector, not a RAGE ligand, PDGF-BB, 10 ng/ml (R&D systems, Minneapolis, Minn., USA) was assessed with a wounding assay. Cells were grown to confluence in 12-well plates and starved overnight. The following morning, serum free media was removed and compounds were added. Immediately following the addition of compounds, the monolayer was wounded using a p200 pipette tip and the compounds were allowed to incubate for 1.5 h. Following this incubation, all compounds were removed and fresh media containing RAGE ligand or general effector, PDGF-BB, was added for 7 h. Cells were maintained at 37° C. and 5% CO2. Images were obtained at TO and T7. Each image was measured and an area ingrowth of effective migrating cells was calculated. The SMC migration assay data for representative compounds, Compounds 229 and 247, is depicted in FIGS. 5a and 5b, respectively.

ctRAGE = ctRAGE (Homo sapiens (Human), UniProt Q15109); test: Fluorescence binding assay (native tryptophan fluorescence titration); design: key to Fluorescent Binding Assay, Kd (nM): ***: No binding; settings: 10 nM ctRAGE, pH 7.0, 5% DMSO; for Kd: read-out: Fluorescent Binding Assay, Kd
Sequence of ctRAGE (Q15109 364-404): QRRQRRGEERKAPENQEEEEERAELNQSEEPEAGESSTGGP
Experimental: Native tryptophan fluorescence experiments were conducted using a Horiba Jobin Yvon Fluorolog spectrofluorometer. 1 mM of compound was dissolved in 10 mM phosphate buffer [pH 7.0] and 50% DMSO. ctRAGE was bacterially expressed and purified as described^1. 10 nM ctRAGE solution was individually titrated from 0.1 nM-100 μM with the compounds in 100 μL of 10 mM phosphate buffer [pH 7.0] and 5% DMSO. The excitation and emission wavelengths were 280 nm and 352 nm, respectively. Dissociation constants, Kd, were estimated from the changes in peak fluorescence intensities as a function of the free compound concentration by using Prism 5 software (GraphPad). Data were fit to the equation, (F−F0)/Fmax=[compound]/(Kd+[compound]) where F is the fluorescence intensity at a given compound concentration, F0 is the fluorescence intensity of the blank, and Fmax is the maximum fluorescence intensity.

Sequence of binding of RAGE tail (ctRAGE) to DIAPH1 (Q15109 364-404): as above

| inhibition at 10 µM [1] | Kd (ctRAGE) | SMC migration Assay, IC50 (nM) [2] | Structure (SMILES) | further results |
| --- | --- | --- | --- | --- |
| 51% | – | – | COC(=O)c1cc(-c2ccc(OC)cc2)nc2ccccc12 [Compound 1] | – |
| 27% | – | – | COC(=O)c1cc(-c2ccccc2)nc2cc(C)ccc12 [Compound 2] | – |
| 36% | – | – | CCCNC(=O)c1cc(-c2ccc(NC(=O)CC)cc2)nc2ccccc12 [Compound 3] | – |
| 45% | – | – | CC(=O)Nc1ccc(-c2cc(C(=O)NCCN(C)C)c3ccccc3n2)cc1 [Compound 4, 2-(4-Acetamidophenyl)-N-(2-(dimethylamino)ethyl)quinoline-4-carboxamide] | – |
| 34% | – | – | CC(=O)Nc1ccc(-c2cc(C(=O)N3CCOCC3)c3ccccc3n2)cc1 [Compound 5, N-(4-(4-(Morpholine-4-carbonyl)quinolin-2-yl)phenyl)acetamide] | – |
| 17% | – | – | COCCNC(=O)c1cc(-c2ccc(NC(C)=O)cc2)nc2ccccc12 [Compound 6] | – |
| 29% | – | – | CC(=O)Nc1ccc(-c2cc(C(=O)N3CCCC3)c3ccccc3n2)cc1 [Compound 7] | – |
| 64% | – | – | COC(=O)c1cc(-c2ccncc2)nc2ccccc12 [Compound 8] | – |
| 25% | – | – | CC(=O)Nc1ccc(-c2cc(C(=O)O)c3ccccc3n2)cc1 [Compound 9] | – |
| 28% | – | – | COC(=O)c1cc(-c2ccccc2C)nc2ccccc12 [Compound 10] | – |
| 34% | – | – | CNC(=O)c1cc(-c2ccc(C)cc2)nc2ccccc12 [Compound 11] | – |
| – | 16 nM | – | CCCCN(C)Cc1cc(-c2ccc(NC(C)=O)cc2)nc2ccccc12 [Compound 238, N-(4-(4-((butyl(methyl)amino)methyl)quinolin-2-yl)phenyl)acetamide] | IC50 [2]: 0.08 nM |
| – | 13 nM | **** | CC(=O)Nc1ccc(-c2cc(CNCCN(C)C)c3ccccc3n2)cc1 [Compound 239, N-(4-(4-(((2-(dimethylamino)ethyl)amino)methyl)quinolin-2-yl)phenyl)acetamide] | – |
| – | – | **** | CC(=O)Nc1ccc(-c2cc(CN(C)CCN(C)C)c3ccccc3n2)cc1 [Compound 240, N-(4-(4-(((2-(dimethylamino)ethyl)(methyl)amino)methyl)quinolin-2-yl)phenyl)acetamide] | Fluorescent Binding Assay, Kd (nM) (ctRAGE): *** |
| – | 11 nM | **** | CNCCNCc1cc(-c2ccc(NC(C)=O)cc2)nc2ccccc12 [Compound 241, N-(4-(4-(((2-(methylamino)ethyl)amino)methyl)quinolin-2-yl)phenyl)acetamide] | – |
| – | 8 nM | – | CNCCN(C)Cc1cc(-c2ccc(NC(C)=O)cc2)nc2ccccc12 [Compound 242, N-(4-(4-((methyl(2-(methylamino)ethyl)amino)methyl)quinolin-2-yl)phenyl)acetamide] | IC50 [2]: 44 nM |
| – | – | **** | CC(=O)Nc1ccc(-c2cc(CCCN3CCOCC3)c3ccccc3n2)cc1 [Compound 243, N-(4-(4-(3-morpholinopropyl)quinolin-2-yl)phenyl)acetamide] | Fluorescent Binding Assay, Kd (nM) (ctRAGE): *** |
| – | 54 nM | **** | CC(=O)Nc1ccc(-c2cc(CN3CCN(C(=O)OC(C)(C)C)CC3)c3ccccc3n2)cc1 [Compound 244, tert-butyl 4-((2-(4-acetamidophenyl)quinolin-4-yl)methyl)piperazine-1-carboxylate] | – |
| – | – | **** | CC(=O)Nc1ccc(-c2cc(CN3CCN(C)CC3)c3ccccc3n2)cc1 [Compound 245, N-(4-(4-((4-methylpiperazin-1-yl)methyl)quinolin-2-yl)phenyl)acetamide] | Fluorescent Binding Assay, Kd (nM) (ctRAGE): *** |
| – | – | **** | CC(=O)Nc1ccc(-c2cc(CN3CCN(C(C)=O)CC3)c3ccccc3n2)cc1 [Compound 246, N-(4-(4-((4-acetylpiperazin-1-yl)methyl)quinolin-2-yl)phenyl)acetamide] | Fluorescent Binding Assay, Kd (nM) (ctRAGE): *** |
| – | 2 nM | – | CC(=O)Nc1ccc(-c2cc(CN3CCCCC3)c3ccccc3n2)cc1 [Compound 247, N-(4-(4-(piperidin-1-ylmethyl)quinolin-2-yl)phenyl)acetamide] | IC50 [2]: 1 nM |
| – | – | **** | Cc1nc2ccc(-c3cc(CN4CCOCC4)c4ccccc4n3)cc2[nH]1 [Compound 248, 4-((2-(2-methyl-1H-benzo[d]imidazol-6-yl)quinolin-4-yl)methyl)morpholine] | Fluorescent Binding Assay, Kd (nM) (ctRAGE): *** |
| – | – | **** | Cc1nc2ccc(-c3cc(CN4CCOCC4)c4ccccc4n3)cc2o1 [Compound 249, 2-methyl-6-(4-(morpholinomethyl)quinolin-2-yl)benzo[d]oxazole] | Fluorescent Binding Assay, Kd (nM) (ctRAGE): *** |
| – | 81 nM | – | CC(=O)Nc1ccc(-c2cc(CN3CCOCC3)c3ccc(F)cc3n2)cc1F [Compound 250, N-(2-fluoro-4-(7-fluoro-4-(morpholinomethyl)quinolin-2-yl)phenyl)acetamide] | IC50 [2]: 40 nM |
| – | 168 nM | **** | CC(=O)Nc1ccc(-c2cc(CN3CCOCC3)c3ccc(F)cc3n2)cc1Cl [Compound 251, N-(2-chloro-4-(7-fluoro-4-(morpholinomethyl)quinolin-2-yl)phenyl)acetamide] | – |
| – | 29 nM | – | CC(=O)Nc1ccc(-c2cc(CN3CCOCC3)c3ccc(F)cc3n2)cc1C#N [Compound 252, N-(2-cyano-4-(7-fluoro-4-(morpholinomethyl)quinolin-2-yl)phenyl)acetamide] | IC50 [2]: 61 nM |
| – | 1300 nM | – | CC(=O)Nc1ccc(-c2cc(CN3CCOCC3)c3ccc(Cl)cc3n2)cc1F [Compound 253, N-(4-(7-chloro-4-(morpholinomethyl)quinolin-2-yl)-2-fluorophenyl)acetamide] | IC50 [2]: 1200 nM |
| – | 1340 nM | – | CC(=O)Nc1ccc(-c2cc(CN3CCOCC3)c3ccc(Cl)cc3n2)cc1Cl [Compound 254, N-(2-chloro-4-(7-chloro-4-(morpholinomethyl)quinolin-2-yl)phenyl)acetamide] | IC50 [2]: 2000 nM |
| – | 137 nM | **** | CC(=O)Nc1ccc(-c2cc(CN3CCOCC3)c3ccc(Cl)cc3n2)cc1C#N [Compound 255, N-(4-(7-chloro-4-(morpholinomethyl)quinolin-2-yl)-2-cyanophenyl)acetamide] | – |
| – | 5800 nM | **** | COc1ccc2c(CN3CCOCC3)cc(-c3ccc(NC(C)=O)c(F)c3)nc2c1 [Compound 256, N-(2-fluoro-4-(7-methoxy-4-(morpholinomethyl)quinolin-2-yl)phenyl)acetamide] | – |
